The test deals with T1, SCD-1 (Homo sapiens, UniProt O00767).
T1 construct: 50 μg of protein from a HepG2 cell P2 pellet; endogenous in cells; host or cells: HepG2 cells (P2 pellet)
T1 sequence (O00767 1-359): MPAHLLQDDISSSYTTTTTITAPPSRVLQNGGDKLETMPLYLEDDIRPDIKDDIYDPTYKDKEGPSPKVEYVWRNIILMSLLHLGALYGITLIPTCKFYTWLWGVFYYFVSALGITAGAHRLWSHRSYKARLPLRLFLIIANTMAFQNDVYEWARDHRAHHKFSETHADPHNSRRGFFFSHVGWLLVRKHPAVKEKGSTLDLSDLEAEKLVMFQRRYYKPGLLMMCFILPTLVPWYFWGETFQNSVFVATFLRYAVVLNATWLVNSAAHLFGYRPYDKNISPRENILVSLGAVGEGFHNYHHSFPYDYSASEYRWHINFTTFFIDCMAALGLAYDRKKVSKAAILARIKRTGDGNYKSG
Kind of test: Stearoyl-CoA desaturase assay (HepG2 cell P2 pellet). Conditions: Table 2, compounds of formula (Ib); protein from HepG2 cell P2 pellet, 20 μM stearoyl-CoA, 15 min at 25° C.; read-out: Ave IC50. The test is classed as biochemical. The method, then: Stearoyl-CoA desaturase assays were performed in according to Talamo and Bloch. […] Assays were run in triplicate in 100-μl volumes of 100 mM TrisHCl, pH 7.3, containing 20 μM stearoyl-CoA, 2 mM β-NADH, and 50 μg of protein from a HepG2 cell P2 pellet. Since SCD-1 is the only isoform of SCD expressed in these cells, the assay is specific for SCD-1 with these cells as the source of enzyme. Reaction mixtures were incubated fifteen minutes at 25° C. and reactions were then stopped with a volume of trichloroacetic acid giving a final concentration of 0.2%. After five minutes, a 90-μl volume was transferred to a Millipore Multiscreen HTS 96-well filtration plate (MSHVN4B50) containing 125 μl of 10% charcoal in each well, to which vacuum had been previously applied. Plates were shaken fifteen minutes and then filtered into a collection plate. Fifty-μI volumes of filtrate were transferred to another plate containing 150 μl of MicroScint 40 for counting on a TopCount scintillation counter.

Bounds are passed on as bounds.

As usually defined, the IC50 is the point on the concentration scale where inhibition reaches its midpoint. For `O=C(NCc1ccccc1)c1cnc(N2CCC3(CC2)CCN(Cc2cccc(C(F)(F)F)c2)c2ccccc2O3)s1` [Compound 57], the IC50 was in the range of 500 to 10000 nM. Turning to `CNC(=O)c1cnc(N2CCC3(CC2)CCN(Cc2cccc(C(F)(F)F)c2)c2ccccc2O3)s1` [Compound 58, N-methyl-2-(5-(3-(trifluoromethyl)benzyl)-4,5-dihydro-3H-spiro[benzo[b][1,4]oxazepine-2,4′-piperidine]-1′-yl)thiazole-5-carboxamide], the IC50 is 0.5 to 49 nM.

On to `CC(C)(C)OC(=O)CCNC(=O)c1cnc(N2CCC3(CC2)CCN(Cc2cccc(C(F)(F)F)c2)c2ccccc2O3)s1` [Compound 60], for which the IC50 lay within 50 to 499 nM.

As to `O=C(NC[C@H](O)CO)c1cnc(N2CCC3(CC2)CCN(Cc2cccc(C(F)(F)F)c2)c2ccccc2O3)s1` [Compound 61], the IC50 fell in the range of 0.5 to 49 nM. `O=C(NCCCO)c1cnc(N2CCC3(CC2)CCN(Cc2cccc(C(F)(F)F)c2)c2ccccc2O3)s1` [Compound 62]: the IC50 was 0.5 to 49 nM. Turning to `CC(C)(C)c1ccc(CN2CCC3(CCN(c4ncc(C(=O)O)s4)CC3)Oc3ccccc32)cc1` [Compound 64], the IC50 lay within 50 to 499 nM. For the molecule `CC(C)(C)c1ccc(CN2CCC3(CCN(c4ncc(C(=O)NC5CC5)s4)CC3)Oc3ccccc32)cc1` [Compound 65], the IC50 fell in the range of 50 to 499 nM. For `CCN(C)C(=O)c1cnc(N2CCC3(CC2)CCN(Cc2ccc(C(C)(C)C)cc2)c2ccccc2O3)s1` [Compound 66], the IC50 lay within 50 to 499 nM. As to `CC(C)(C)c1ccc(CN2CCC3(CCN(c4ncc(C(=O)NCc5ccccc5)s4)CC3)Oc3ccccc32)cc1` [Compound 67], the IC50 lay within 500 to 10000 nM. Turning to `CCNC(=O)c1cnc(N2CCC3(CC2)CCN(Cc2ccc(C(C)(C)C)cc2)c2ccccc2O3)s1` [Compound 68], the IC50 lay within 0.5 to 49 nM. For the molecule `COC(=O)CCNC(=O)c1cnc(N2CCC3(CC2)CCN(Cc2ccc(C(C)(C)C)cc2)c2ccccc2O3)s1` [Compound 69], the IC50 lay in the range of 0.5 to 49 nM. In the case of `CNC(=O)c1cnc(N2CCC3(CC2)CCN(Cc2ccc(C(C)(C)C)cc2)c2ccccc2O3)s1` [Compound 70], the IC50 was 0.5 to 49 nM.

On to `CC(C)(C)c1ccc(CN2CCC3(CCN(c4ncc(C(=O)Nc5ccccc5)s4)CC3)Oc3ccccc32)cc1` [Compound 71], for which the IC50 is above 10000 nM. To `CC(C)(C)c1ccc(CN2CCC3(CCN(c4ncc(C(=O)N5CCCC5)s4)CC3)Oc3ccccc32)cc1` [Compound 72] belongs 500 to 10000 nM; to `Cn1cnc(-c2cnc(N3CCC4(CC3)CCN(Cc3ccc(C(C)(C)C)cc3)c3ccccc3O4)s2)n1` [Compound 73], 0.5 to 49 nM. Consider `CC(C)(C)c1ccc(CN2CCC3(CCN(c4ncc(C(=O)O)s4)CC3)Oc3c(F)cccc32)cc1` [Compound 74], for which the IC50 is 0.5 to 49 nM. In the case of `CC(C)(C)c1ccc(CN2CCC3(CCN(c4ncc(C(N)=O)s4)CC3)Oc3c(F)cccc32)cc1` [Compound 76] it was 0.5 to 49 nM; in that of `Cc1ccc(CCNC(=O)c2cnc(N3CCC4(CC3)CCN(Cc3ccc(C(C)(C)C)cc3)c3cccc(F)c3O4)s2)s1` [Compound 78], 500 to 10000 nM; in that of `CC(C)(C)c1ccc(CN2CCC3(CCN(c4ncc(C(=O)NCC5CCCO5)s4)CC3)Oc3c(F)cccc32)cc1` (stereo not shown) [Compound 79], 50 to 499 nM.

As for `CC(C)(C)c1ccc(CN2CCC3(CCN(c4ncc(C(=O)NCC[C@H]5CC[C@H](O)C5)s4)CC3)Oc3c(F)cccc32)cc1` [Compound 80], the IC50 was in the range of 500 to 10000 nM. For `CC(C)(C)c1ccc(CN2CCC3(CCN(c4ncc(C(=O)NCCN5CCCC5=O)s4)CC3)Oc3c(F)cccc32)cc1` [Compound 81], the IC50 is 500 to 10000 nM. Take `CC(C)(C)c1ccc(CN2CCC3(CCN(c4ncc(C(=O)NC[C@H]5CC[C@H](O)C5)s4)CC3)Oc3c(F)cccc32)cc1` [Compound 82]: the IC50 is above 10000 nM. In the case of `CC(C)(C)c1ccc(CN2CCC3(CCN(c4ncc(C(=O)NCCc5cccs5)s4)CC3)Oc3c(F)cccc32)cc1` [Compound 83], the IC50 was 500 to 10000 nM. As for `CC(C)CNC(=O)c1cnc(N2CCC3(CC2)CCN(Cc2ccc(C(C)(C)C)cc2)c2cccc(F)c2O3)s1` [Compound 84], the IC50 was 500 to 10000 nM.

Take `CC(C)(C)c1ccc(CN2CCC3(CCN(c4ncc(C(=O)NCc5ccccn5)s4)CC3)Oc3c(F)cccc32)cc1` [Compound 85]: the IC50 was 50 to 499 nM. For `CC(C)(C)c1ccc(CN2CCC3(CCN(c4ncc(C(=O)NCCCn5ccnn5)s4)CC3)Oc3c(F)cccc32)cc1` [Compound 86], the IC50 is 500 to 10000 nM.

In the case of `CC(C)(C)c1ccc(CN2CCC3(CCN(c4ncc(C(=O)NCc5ccccc5F)s4)CC3)Oc3c(F)cccc32)cc1` [Compound 87], the IC50 lay within 50 to 499 nM. In the case of `CC(C)(C)c1ccc(CN2CCC3(CCN(c4ncc(C(=O)NCC5OCCO5)s4)CC3)Oc3c(F)cccc32)cc1` [Compound 88], the 50% inhibitory concentration (IC50) lay in the range of 0.5 to 49 nM.

For the molecule `CC(C)(C)c1ccc(CN2CCC3(CCN(c4ncc(C(=O)NCC5CCCO5)s4)CC3)Oc3c(F)cccc32)cc1` (stereo not shown) [Compound 89], the IC50 lay within 50 to 499 nM.

For `Cc1nn(C)c(C)c1CNC(=O)c1cnc(N2CCC3(CC2)CCN(Cc2ccc(C(C)(C)C)cc2)c2cccc(F)c2O3)s1` [Compound 90], the IC50 is 500 to 10000 nM.

Regarding `CC(C)(C)c1ccc(CN2CCC3(CCN(c4ncc(C(=O)NCCC(N)=O)s4)CC3)Oc3c(F)cccc32)cc1` [Compound 91], the IC50 lay in the range of 50 to 499 nM.

For the molecule `CC(C)(C)c1ccc(CN2CCC3(CCN(c4ncc(C(=O)NCCc5ccsc5)s4)CC3)Oc3c(F)cccc32)cc1` [Compound 92], the IC50 fell in the range of 500 to 10000 nM.

Turning to `C[S+]([O-])CCNC(=O)c1cnc(N2CCC3(CC2)CCN(Cc2ccc(C(C)(C)C)cc2)c2cccc(F)c2O3)s1` (stereo not shown) [Compound 93], the IC50 is 50 to 499 nM. In the case of `CCCNC(=O)c1cnc(N2CCC3(CC2)CCN(Cc2ccc(C(C)(C)C)cc2)c2cccc(F)c2O3)s1` [Compound 94], the IC50 is 50 to 499 nM. Regarding `CC(C)(C)c1ccc(CN2CCC3(CCN(c4ncc(C(=O)NC[C@@H](O)CO)s4)CC3)Oc3c(F)cccc32)cc1` [Compound 95], the IC50 lay in the range of 50 to 499 nM. With `CC(C)(C)c1ccc(CN2CCC3(CCN(c4ncc(C(=O)NCCCO)s4)CC3)Oc3c(F)cccc32)cc1` [Compound 96], the IC50 was in the range of 0.5 to 49 nM. For `Cc1cc(CNC(=O)c2cnc(N3CCC4(CC3)CCN(Cc3ccc(C(C)(C)C)cc3)c3cccc(F)c3O4)s2)no1` [Compound 97], the IC50 was in the range of 500 to 10000 nM. In the case of `CC(C)(C)c1ccc(CN2CCC3(CCN(c4ncc(C(=O)NCC(F)(F)F)s4)CC3)Oc3c(F)cccc32)cc1` [Compound 98], the IC50 lay within 50 to 499 nM.

For `CC(C)(C)c1ccc(CN2CCC3(CCN(c4ncc(C(=O)NC[C@H](O)c5ccccc5)s4)CC3)Oc3c(F)cccc32)cc1` [Compound 99], the IC50 lay in the range of 500 to 10000 nM. In the case of `Cc1n[nH]c(C)c1CCNC(=O)c1cnc(N2CCC3(CC2)CCN(Cc2ccc(C(C)(C)C)cc2)c2cccc(F)c2O3)s1` [Compound 100] it was above 10000 nM; in that of `CC(C)(C)c1ccc(CN2CCC3(CCN(c4ncc(C(=O)NCCN5CCCC5)s4)CC3)Oc3c(F)cccc32)cc1` [Compound 101], 500 to 10000 nM; in that of `CC(C)(C)c1ccc(CN2CCC3(CCN(c4ncc(C(=O)NCc5ccco5)s4)CC3)Oc3c(F)cccc32)cc1` [Compound 102], 500 to 10000 nM. For the molecule `COCCNC(=O)c1cnc(N2CCC3(CC2)CCN(Cc2ccc(C(C)(C)C)cc2)c2cccc(F)c2O3)s1` [Compound 103], the IC50 was 50 to 499 nM.

The values above are taken from patent US20120220567A1, “BENZO-FUSED OXAZEPINE COMPOUNDS AS STEAROYL-COENZYME A DELTA-9 DESATURASE INHIBITORS” (priority 2009, published 2012).
